According to publication PMC6943434, “Novel Homo-Bivalent and Polyvalent Compounds Based on Ligustrazine and Heterocyclic Ring as Anticancer Agents” (Molecules, 2019):
Read-outs that look alike come from different tables or passages of the source.

Key:
[1] = system: HeLa (cervical cancer cell line); assay: MTT cell viability assay, HeLa; type: cell-based; conditions: Homo sapiens, 48 h, read-out: Antiproliferative Activity IC50 ± SEM, HeLa
Protocol: (§1) The tested cells were obtained from Shanghai Institute of Biochemistry and Cell Biology of the Chinese Academy of Sciences (Shanghai, China). HeLa and Hep G2 cell lines were cultured in Dulbecco’s modified Eagle’s medium (DMEM; gibco, Life Technologies, Carlsbad, CA, USA) supplemented with 10% fetal bovine serum (FBS; Biological Industries), 100 U/mL penicillin-streptomycin (PS; gibco, Life Technologies, Carlsbad, CA, USA). MCF-7 and A549 cell lines were maintained in RPMI-1640 media (gibco, Life Technologies, Carlsbad, CA, USA) supplemented with 10% FBS and 100 U/mL PS. FaDu cell lines were cultured in minimum essential medium (MEM; Gibco, Life Technologies, Carlsbad, CA, USA) supplemented with 10% FBS and 100 U/mL PS. MCF 10A cell lines were maintained in Mammary MEGM kit (Lonza/Clonetics) supplemented with 100 ng/mL cholera toxin (Sigma, Shanghai, China). Cell lines were grown at 37 °C in a humidified atmosphere of 5% CO2.
(§2) The growth-inhibitory effects against HeLa, Hep G2, MCF-7, FaDu, and A549 cancer cells and normal cell lines MCF 10A were determined by MTT assay. […] Cells were seeded in 96 well plates at a density of 1 × 10^4 cells per well and incubated for 24 h at 37 °C in a humidified atmosphere of 5% CO2. The cells were then incubated with various concentrations of drugs for 48 h in a 5% CO2 incubator at 37 °C. After treatment with 1 mg/mL 3-(4,5-dimethylthiazol-2-yl)-2,5-diphenyltetrazolium bromide (MTT) solution for 4 h, the formazan crystals were dissolved in 100 µL DMSO in each well. Plates were read on a microplate reader (Thermo Varioskan Flash 3001) at 490 nm. The experiment was performed in triplicate. The inhibitory concentration at 50% (IC50) was calculated based on concentration-inhibition relationships via regression using SPSS software (Version 17.0).

[2] = system: Hep G2 (hepatocarcinoma cell line); assay: MTT cell viability assay, Hep G2; type: cell-based; conditions: Homo sapiens, HepG2, 48 h, read-out: Antiproliferative Activity IC50 ± SEM, Hep G2
Protocol: as §1, §2

[3] = system: MCF-7 (breast cancer cell line); assay: MTT cell viability assay, MCF-7; type: cell-based; conditions: Homo sapiens, MCF7, 48 h, read-out: Antiproliferative Activity IC50 ± SEM, MCF-7
Protocol: as §1, §2

[4] = system: FaDu (head and neck squamous carcinoma cell line); assay: MTT cell viability assay, FaDu; type: cell-based, human; conditions: for IC50: 48 h, MTT, read-out: Antiproliferative Activity IC50 ± SEM, FaDu; for SI: selectivity index: SI = IC50 (MCF 10A)/IC50 (FaDu)
Protocol: as §1, §2

[5] = system: A549 (epithelial cancer cell line); assay: MTT cell viability assay, A549; type: cell-based; conditions: Homo sapiens, 48 h, read-out: Antiproliferative Activity IC50 ± SEM, A549
Protocol: as §1, §2

[6] = system: MCF 10A (normal mammary epithelial cell); assay: MTT cell viability assay, MCF 10A; type: cell-based; conditions: Homo sapiens, 48 h, normal cells, read-out: Antiproliferative Activity IC50 ± SEM, MCF 10A
[7] = system: HeLa, Hep G2, MCF-7, FaDu, A549, MCF 10A; assay: MTT cell viability assay, summary over the cell line panel; type: cell-based, human; conditions: 48 h, span over the cell lines, read-out: IC50 range over tested cell lines
Protocol: as §1, §2

FaDu cells [8] = assay: Colony formation assay; type: cell-based; conditions: Homo sapiens, 240 h, 6 nM, 10 days, read-out: colony inhibition rate
Protocol: FaDu cells were seeded in a 6-well plate with 500 cells per well and incubated for 24 h. Then, the cells were treated with compound 8e at various final concentrations of 0, 0.75, 1.50, 3 nM. Following treatment for 10 days, the cells were washed with PBS twice and fixed with 4% paraformaldehyde for 10 min at room temperature. Then, the cell colonies were visualized by staining with 0.1% crystal violet for 10 min. The image was photographed with Handy camera, and the numbers of cell colonies were analyzed using the open Image J software (Developed by National Institutes of Health). A group of >50 cells was defined as one colony. Triplicate wells were set up for each concentration.

FaDu cells [9] = assay: Flow cytometric analysis of apoptosis by annexin V-FITC/PI staining; type: cell-based, human; conditions: 24 h, control 8.23%
Protocol: Apoptosis in FaDu cells was evaluated by an annexin V-FITC/PI apoptosis detection kit (Beyotime Institute of Biotechnology, Shanghai, China). Briefly, FaDu cells were treated with various concentrations of compound 8e (2, 5, 10 nM) or DMSO as vehicle control for 24 h at 37 °C; then, the cells were washed twice with cold 1× PBS and centrifuged at 1000 rpm for 5 min. The harvested cells were resuspended gently in 400 µL binding buffer, containing 5 µL annexin V-FITC and 10 µL PI. After incubating for 15 min in the dark at room temperature, the cells were analyzed with flow cytometry (CyFlow® Cube 6, Sysmex). Data were shown as pseudo color graphs and analyzed using FlowJo Software (Tree Star Inc, Ashland, OR).

FaDu cells [10] = assay: Cell cycle analysis by PI staining; type: cell-based, human; conditions: 24 h; for percentage of cells in the S phase: control 28.1%; for population of the G0/G1 phase: control 51.9%
Protocol: The cell cycle analysis was carried out by a cell cycle and apoptosis analysis kit with a propidium iodide (PI) staining method (Beyotime Institute of Biotechnology, Shanghai, China). Briefly, FaDu cells were incubated with the above-mentioned doses of compound 8e for 24 h; all samples were collected, washed once with cold 1× PBS, and fixed by 70% ice-cold ethanol at 4 °C for 12 h. Then, the fixed cells were washed once with cold 1× PBS and stained with 500 µL 1× PI dye solution (containing 10 µL RNase A) at 37 °C for 30 min in the dark. The red fluorescence was detected using a flow cytometer (CyFlow® Cube 6, Sysmex). The data were analyzed using FlowJo Software (Tree Star Inc, Ashland, OR, USA).

Row | Compound | IC50 [1] | IC50 [2] | IC50 [3] | IC50 ([4]; Homo sapiens, FaDu) | SI: selectivity index [4] | IC50 [5] | IC50 [6] | IC50 ([7]; Homo sapiens) | inhibition at 0.006 µM (FaDu cells [8]) | apoptotic cells (early and late apoptosis ratios) (FaDu cells [9]; 2 nM) | apoptotic cells (early and late apoptosis ratios) (FaDu cells [9]; 5 nM) | apoptotic cells (early and late apoptosis ratios) (FaDu cells [9]; 10 nM) | percentage of cells in the S phase (FaDu cells [10]; 2 nM) | population of the G0/G1 phase (FaDu cells [10]; 2 nM) | percentage of cells in the S phase (FaDu cells [10]; 5 nM) | population of the G0/G1 phase (FaDu cells [10]; 5 nM) | percentage of cells in the S phase (FaDu cells [10]; 10 nM) | population of the G0/G1 phase (FaDu cells [10]; 10 nM) | IC50 [7] | IC50 [4]
1 | Cc1nc(C)c(CN(CCCCCCCCCCCCN(Cc2nc(C)c(C)nc2C)Cc2nc(C)c(C)nc2C)Cc2nc(C)c(C)nc2C)nc1C [Compound 6g, N^1,N^1,N^12,N^12-Tetrakis((3,5,6-Trimethylpyrazin-2-yl)Methyl)Dodecane-1,12-Diamine] | 7.89 ± 0.86 µM | 9.62 ± 0.11 µM | 9.83 ± 0.17 µM | 6.8 ± 0.05 µM | 0.97 | 9.23 ± 0.16 µM | 6.57 ± 0.3 µM | 6.57 to 20.8 µM |  |  |  |  |  |  |  |  |  |  |  | 
2 | Cc1nc(C)c(CN(CCCCCCCCCCN(Cc2nc(C)c(C)nc2C)Cc2nc(C)c(C)nc2C)Cc2nc(C)c(C)nc2C)nc1C [Compound 6f, N^1,N^1,N^10,N^10-Tetrakis((3,5,6-Trimethylpyrazin-2-yl)Methyl)Decane-1,10-Diamine] | 10.2 ± 0.55 µM | 10.7 ± 0.22 µM | 20.83 ± 0.14 µM | 10.9 ± 0.12 µM | 1.19 | 20.1 ± 0.41 µM | 13 ± 0.55 µM | 6.57 to 20.8 µM |  |  |  |  |  |  |  |  |  |  |  | 
3 | Nc1cccc(C(=O)NCCCCCCCCCCNC(=O)c2cccc(N)c2)c1 [Compound 32e, N,N′-(Decane-1,10-Diyl)bis(3-Aminobenzamide)] | > 20 µM | > 20 µM | > 20 µM | > 20 µM |  | > 20 µM | > 20 µM |  |  |  |  |  |  |  |  |  |  |  |  | 
4 | Cc1nc(C)c(CN(CCCCN(Cc2nc(C)c(C)nc2C)Cc2nc(C)c(C)nc2C)Cc2nc(C)c(C)nc2C)nc1C [Compound 6c, N^1,N^1,N^4,N^4-Tetrakis((3,5,6-Trimethylpyrazin-2-yl)Methyl)Butane-1,4-Diamine] | > 100 µM | > 100 µM | > 100 µM | > 100 µM |  | > 100 µM | > 100 µM |  |  |  |  |  |  |  |  |  |  |  |  | 
5 | O=C(NCCCCCCCCCCNC(=O)c1cnc2ccccc2c1)c1cnc2ccccc2c1 [Compound 17e, N,N′-(Decane-1,10-Diyl)Bis(Quinoline-3-Carboxamide)] | > 20 µM | > 20 µM | > 20 µM |  | >84.75 | > 20 µM | > 20 µM |  |  |  |  |  |  |  |  |  |  |  |  | 
6 | Cc1nc(C)c(C(=O)NCCCCCCCCCCNC(=O)c2nc(C)c(C)nc2C)nc1C [Compound 8e, N,N′-(Decane-1,10-Diyl)Bis(3,5,6-Trimethylpyrazine-2-Carboxamide)] | 1.42 ± 0.71 µM | > 20 µM | 0.037 ± 0.001 µM | 0.00136 ± 0.00035 µM | 34.56 | 1.05 ± 0.05 µM | 0.047 ± 0.008 µM |  | ~85.4% | 34.2% | 57.7% | 79.5% | 33.7% | 41.8% | 44.3% | 44.2% | 54.7% | 32.4% | 0.00136 to 1.42 µM | 
7 | O=C(/C=C/c1ccccc1)NCCOCCOCCNC(=O)/C=C/c1ccccc1 [Compound 9j, (2E,2′E)-N,N′-((Ethane-1,2-Diylbis(Oxy))Bis(Ethane-2,1-Diyl))Bis(3-Phenylacrylamide)] | > 20 µM | > 20 µM | > 20 µM | > 20 µM |  | > 20 µM | > 20 µM |  |  |  |  |  |  |  |  |  |  |  |  | 
8 | Cc1nc(C)c(C(=O)NCCCCNC(=O)c2nc(C)c(C)nc2C)nc1C [Compound 8b, N,N′-(Butane-1,4-Diyl)Bis(3,5,6-Trimethylpyrazine-2-Carboxamide)] | > 100 µM | > 100 µM | > 100 µM | > 100 µM |  | > 100 µM | > 100 µM |  |  |  |  |  |  |  |  |  |  |  |  | 
9 | O=C(NCCCCCCCCCCNC(=O)c1ccccc1)c1ccccc1 [Compound 11e, N,N′-(Decane-1,10-Diyl)Dibenzamide] | > 100 µM | > 100 µM | > 100 µM | < 1 µM | 161.08 | 64.3 ± 3.46 µM | 80.5 ± 7.6 µM |  |  |  |  |  |  |  |  |  |  |  |  | 0.5 ± 0.06 µM
